Test: Human HepG2 cell viability assay in 384 well format
Format: toxicity, cell-based
Design: dose 125 nL, time 70.5 hour; concentration not given beside the values
Conditions: HepG2 cells, read-out: Inhibition

In order of falling cytotoxicity at 70.5 h:
1. CCNC(=O)[C@@H]1C[C@H](N)CN1c1cc(C(F)(F)F)nc(N(C)C)n1  37.1%
2. CCC(NC(=O)c1cnc(-c2cccnc2)nc1)c1ccnn1C (stereo not drawn)  32.1%
3. CCc1nc(NCc2ccccn2)c2c(n1)c(C)nn2C  30.9%
4. Cc1cc(C)n(CCC(=O)N2CCCC(c3cc(C(N)=O)[nH]n3)C2)n1 (stereo not drawn)  29.3%
5. CN(C)[C@H]1CCN(c2nc(C(C)(C)C)nc3c2cnn3C)C1  27.9%
6. COCCC(=O)Nc1cnn(COc2ccc(F)cc2Cl)c1  27.4%
7. CC(=O)c1cccc(NC(=O)N(CCO)C2CCc3ccccc32)c1 (stereo not drawn)  26.8%
8. CN1CCN(c2ccc(NS(=O)(=O)c3ccc(Br)s3)cc2C(=O)O)CC1  24%
9. c1ccc2c3c([nH]c2c1)CN(Cc1cc2n(n1)CCNC2)CC3  21.1%
10. CCCC(=O)Nc1ccc2c(c1)C1(CCOCC1)CN2CCOC  18.8%
11. CCCc1nnc(NC(=O)N2CCCC2c2ccncc2)s1 (stereo not drawn)  18.5%
12. CCS(=O)(=O)c1ccccc1C(=O)N1CCCC(n2cccn2)C1 (stereo not drawn)  18.2%
13. CC(C)N1CCN(C(=O)Nc2cnn(CC(N)=O)c2)CC1  18.2%
14. O=C(CCN1CCOC(Cn2cccn2)C1)NC1CCCC1 (stereo not drawn)  17.5%
15. Cc1nccn1-c1cc(CNC(=O)CC2CCCO2)ccn1 (stereo not drawn)  16.3%
16. Cc1cccc(CN2CCS(=O)(=O)[C@@H]3CCN(C(=O)C4CC4)CC[C@@H]32)n1  15.9%
17. O=c1ccc(-n2ccnc2)nn1CCNS(=O)(=O)c1ccc(Br)cc1  15.1%
18. CCS(=O)(=O)NCCNCc1cc(F)ccc1Br  14.4%
19. Cc1ccn(-c2ccc(NCc3ccccc3F)nn2)n1  13.7%
20. Cc1nn(-c2ccccc2)nc1C(=O)NCC(c1ccsc1)N(C)C (stereo not drawn)  13.1%
21. O=C(NCCCN1CCOCC1)c1ccn(COc2ccc(Br)cc2)n1  12.3%
22. CC(C)(C)CN1CC(COc2ccccc2)Oc2ccncc2S1(=O)=O (stereo not drawn)  10.8%
23. CC(NCC1CCN(CCO)CC1)c1ccc(Cl)cc1 (stereo not drawn)  10.5%
24. COCCN(Cc1sccc1C)C(=O)C1CCCN(C(N)=O)C1 (stereo not drawn)  9.09%
25. CCC(N)C(=O)N1CCC(OCc2ccc(Cl)c(Cl)c2)CC1 (stereo not drawn)  8.03%
26. CCN(Cc1cscn1)CC1(C)Cc2c(N)nc(N)nc2O1 (stereo not drawn)  6.12%
27. COCc1ccc(C(=O)N2CCCN(c3ccc(F)cc3)CC2)s1  5.91%
28. O=C(NCc1ccccc1)c1nnc2ccc(N3CCOCC3)cc2n1  4.86%
29. O=C(c1ccoc1)N1CCn2cnc(COCC3CC3)c2C1  4.58%
30. CN(C)S(=O)(=O)N1CC[C@]2(C[C@H](Oc3ncccc3F)CO2)C1  2.84%
31. Cc1cc(C)n(CC2CN(Cc3nc(-c4ccco4)no3)CCO2)n1 (stereo not drawn)  2.57%
32. O=C([C@H]1C[C@H]2OCC[C@H]2N(C(=O)c2ccnnc2)C1)N1CCCCO1  1.65%
33. CC(C)NC(=O)C1CN(Cc2ccsc2)Cc2ccnn2C1 (stereo not drawn)  1.63%
34. Cc1nc(CN(C)C2CCN(CCCOc3ccccc3C)C2)no1 (stereo not drawn)  0.379%
35. CCc1cnc(C)nc1NCCNc1nc(C)cc(=O)[nH]1  0.367%
36. CCNC(=O)CN1CCOC(c2ccccc2C(F)(F)F)C1 (stereo not drawn)  0.292%
37. CN(C)C(=O)CNC(CC(F)(F)F)c1ccc(Cl)cc1 (stereo not drawn)  0.0833%
38. O=C(NCCNc1ncccn1)N1CCCC1  -0.644%
39. CNC(=O)c1cccc(NC(=O)c2ccnc(N(C)C)c2)c1C  -0.673%
40. Cc1noc(C2(C)CCCN(C(=O)C(C)C)C2)n1 (stereo not drawn)  -0.687%
41. CNC(=O)[C@H]1C[C@@H]2CN(S(=O)(=O)c3ccc(C)cc3)C[C@@H]2N1C  -1.06%
42. CC(=O)Nc1cnc(-n2ccnc2)nc1  -1.27%
43. CCO[C@@H]1CC[C@H]2[C@H]1OCCN2Cc1ccoc1  -1.39%
44. Cc1noc(C)c1C(=O)N(C)Cc1nc(-c2ccccn2)no1  -1.56%
45. O=C1CC(c2ccncc2)C2(CCN(C(=O)NC3CC3)CC2)N1 (stereo not drawn)  -1.57%
46. CCc1nnc2n1CC(CNCC1CCCC1)CC2 (stereo not drawn)  -1.75%
47. CCC(CNc1ncnc2oc(C)nc12)Cc1ccccc1 (stereo not drawn)  -1.88%
48. CC(=O)N1CCC(C(=O)NCCN2CCC(C)CC2)CC1  -2.37%
49. COc1ccc(CNC(C)c2cnc3cc(C)nn3c2C)cc1 (stereo not drawn)  -2.4%
50. CCc1cc(CN(C)C(=O)CN2CC3(CCNCC3)OC2=O)on1  -2.42%
51. COc1ccccc1[C@@H]1CN(C(=O)c2csc(C)n2)C[C@H]1C(=O)O  -2.79%
52. CC(C)NC(=O)N1CCc2onc(C(=O)NCCN(C)C)c2C1  -2.85%
53. CNC(=O)C1=NOC2(CCN(Cc3nccs3)C2)C1 (stereo not drawn)  -3.01%
54. O=C(c1ccc(=O)[nH]c1)N1CCc2c(nc(-c3cccnc3)[nH]c2=O)C1  -3.02%
55. COc1ccc(CCNC(=O)N2CCN(C)[C@@H]3CS(=O)(=O)C[C@@H]32)cc1  -3.24%
56. CCCOC1CCCN(C(=O)c2ccc(S(N)(=O)=O)cc2)C1 (stereo not drawn)  -3.49%
57. COc1ccc(CNC(=O)N2CCOCC2C2CC2)cc1C (stereo not drawn)  -3.69%
58. Cc1c(C(=O)N2CCC(C(O)c3ccc(Cl)cc3)CC2)cnn1C (stereo not drawn)  -3.74%
59. CC(C)C1CCC(N2CCN(CCCS(C)(=O)=O)CC2)CC1 (stereo not drawn)  -3.77%
60. CC(=O)NCCNC(=O)CCn1c(C)cc2ccccc21  -3.8%
61. CCCn1ncnc1C(C)NC(=O)C1CCN(C(=O)C2CC2)CC1 (stereo not drawn)  -3.95%
62. O=C(CC(F)(F)F)N1CCC2(CCCN(c3nncs3)C2)C1 (stereo not drawn)  -3.95%
63. O=C(CN1CCCCC1)NCc1cccnc1-n1cnc2ccccc21  -4.51%
64. CCOc1ccnc(N2CCN(C(=O)CCc3cnn(C)c3)CC2)n1  -4.83%
65. Cc1csc(C(Cc2ccsc2)NC(=O)CN(C)Cc2ccccn2)n1 (stereo not drawn)  -5%
66. COCC(C)NC(=O)CCCn1cnc2ccccc2c1=O (stereo not drawn)  -5.09%
67. Cc1ccc(S(C)(=O)=O)cc1C(=O)NS(=O)(=O)c1cccs1  -5.12%
68. CCN1CCN(C(C)(C)CNc2nc(C)cc(C3CCC3)n2)CC1  -5.33%
69. COCCNC(=O)CN(C)CCn1nc2ccccn2c1=O  -5.55%
70. Cc1n[nH]cc1CNCC1(c2ccc3c(c2)OCO3)CCOCC1  -5.66%
71. Cn1ncc2c(NCCn3cccc3)nc(C3CCCC3)nc21  -5.71%
72. COc1cccc(C(=O)N2CC[C@@H]3[C@H](CC2)N(C)CCS3(=O)=O)c1  -5.98%
73. O=C(CS(=O)(=O)Cc1ccc(F)cc1)NC1CCCCNC1=O (stereo not drawn)  -6.01%
74. O=C1CC[C@H]2CN(c3ncc(F)cn3)CC[C@H]2N1CCc1ccccc1  -6.02%
75. O=C(CCCN1CCCCC1)NC(C(=O)O)c1cccc(F)c1 (stereo not drawn)  -6.49%
76. COCCNC(=O)C[C@@H]1COC[C@H]2CN(C(=O)c3cnccn3)C[C@@H]12  -6.71%
77. O=c1c(S(=O)(=O)N2CCCC2)cccn1Cc1c(F)cccc1Cl  -6.76%
78. Cc1noc(CCCC(=O)NCCc2cc3ccccc3[nH]2)n1  -6.92%
79. CC(c1nc(C2CC2)no1)N1CCN(Cc2cccnc2)CC1 (stereo not drawn)  -6.99%
80. CC(NC(=O)c1ccc(C#N)cn1)C1(N2CCOCC2)CCCC1 (stereo not drawn)  -7.03%
81. Cc1nc(CN2CCN(C(=O)C(c3ccccc3C)N(C)C)CC2)no1 (stereo not drawn)  -7.12%
82. Cc1cc(C(F)(F)F)n2nc(C3CCN(S(C)(=O)=O)CC3)cc2n1  -7.35%
83. O=C1CC(NCc2ccc(Cl)s2)CN1Cc1cccc(F)c1 (stereo not drawn)  -7.49%
84. CNC(=O)C(C)S(=O)(=O)Cc1csc(-c2cccs2)n1 (stereo not drawn)  -7.57%
85. COc1cccc2c1OCC(CNC(=O)CCCN1CCOCC1)C2 (stereo not drawn)  -7.84%
86. COc1ccc(CCNC2CCCN(c3ccc(C)nn3)C2)cc1 (stereo not drawn)  -7.85%
87. CCN1CCN(C2CCN(Cc3nc4ccccc4o3)CC2)C1=O  -8.04%
88. Cn1cc(NC(=O)Nc2ccc3c(c2)OCO3)cn1  -8.14%
89. CC(C)c1noc(CCCC(=O)NCCOc2ccccc2)n1  -8.16%
90. CN(Cc1noc(C2CC2)n1)C1CCN(Cc2ccc(F)c(F)c2)C1 (stereo not drawn)  -8.17%
91. Cc1ccc(-c2nc(C(=O)N3CCCC(C(N)=O)C3)cs2)c(C)c1 (stereo not drawn)  -8.34%
92. COc1ccc(CCCN(C)C(=O)c2cc(C(C)=O)c[nH]2)cc1OC  -8.38%
93. COc1ccncc1NC(=O)C1(c2ccccc2)CC1  -8.43%
94. CCC(C)NC(=O)Nc1cccc(OCCCC#N)c1 (stereo not drawn)  -8.47%
95. O=C(NCc1ccco1)c1cccc(CN2CCCC2CO)c1 (stereo not drawn)  -8.88%
96. N#Cc1ccccc1CN1CCc2sccc2C1  -8.96%
97. O=C(Cc1ccccn1)N1CCC2(CC1)CC(Oc1ccccn1)CO2 (stereo not drawn)  -9.02%
98. COCCCNC(=O)Nc1c(C)cccc1C(C)C  -9.85%
99. Cc1nn(CC(=O)N(C)Cc2nncn2C(C)C)c(=O)c2ccccc12  -9.91%
100. O=C(Cn1nc(-c2ccc(F)cc2)oc1=O)NCCc1ccccc1  -10.7%
101. CC(C)(C)C(=O)N1CC[C@@H]2[C@H](CC1)N(S(C)(=O)=O)CCS2(=O)=O  -10.7%
102. CCNc1ncc2c(n1)CN(c1ccc(C)c(C)c1)C2=O  -11.2%
103. CCc1csc(C2CCCN(C(=O)c3ccc(=O)n(C)n3)C2)n1 (stereo not drawn)  -11.3%
104. CCOCC(=O)N1CC[C@H]2OCC[C@@]2(COc2ncccc2F)C1  -12%
105. CCN(CC)c1nc(C)cc(C(=O)Nc2cnn(CC)c2)n1  -12.1%
106. c1csc(-c2nc(CN3CCn4c(nnc4C4CC4)C3)co2)c1  -13.1%
107. COc1cc2c(cc1OC)CN(Cc1ncccc1C(=O)O)CC2  -13.5%
108. CC(NCc1nnc2n1CCCC2)c1nc(C(C)(C)C)no1 (stereo not drawn)  -13.6%
109. O=C(c1ccccn1)N1CCC2(CC1)COC(COCC1CCCC1)C2 (stereo not drawn)  -13.8%
110. COCCn1cnnc1CN(C)c1nc(N)ncc1C  -14.6%
111. CC(C#N)NS(=O)(=O)c1cccc(C(C)C)c1 (stereo not drawn)  -15.4%
112. O=C(c1cnc(OCC(F)(F)F)c(Cl)c1)N1CCc2ccc(O)cc2C1  -18.4%
113. COCc1noc(CN2CC(Cc3ccccc3)CC2=O)n1 (stereo not drawn)  -20.6%

From ChEMBL document CHEMBL3507680, “University of Dundee, Gates Library screen for HepG2 cell viability”
